Experimental data published in US20060229433A1, “Modified antiviral peptides with increased activity and cell membrane affinity” (priority 2003, published 2006).
“And” between values parts separate entries of the source, which are not always exact repeats. Equal entries are not always repeated. Peptide text beside a SMILES is read from it.

What was measured:
Assay type in all cases: cell-based
HIV-1 NL 4-3 [1] = assay: HIV-1 infection of C8166 cells (syncytia formation, p24 ELISA) with HIV-1 NL 4-3; design: key to syncitia formed, Day 4 / syncitia formed, Day 5 / syncitia formed, Day 6 / syncitia formed, Day 7: ++, +, (+), (+)− and − represent decreasing numbers of syncitia formed; ++, +, (+), (+)− and − represent decreasing numbers of syncitia formed; ++, +, (+), (+)− and − represent decreasing numbers of syncitia formed; ++, +, (+), (+)− and − represent decreasing numbers of syncitia formed; ++, +, (+), (+)− and − represent decreasing numbers of syncitia formed
Summary of the method: (§1)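 C8166 T-cells were preincubated with peptide for 1 h at 37 °C, then exposed for 1 h to HIV-1 at 1000 TCID50/ml, washed, and cultured with peptide kept present throughout, with medium replaced at day 4. Infection was scored by syncytia formation and by supernatant p24 ELISA, with at least two runs in duplicate.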

HIV-1 NDK = assay: HIV-1 infection of C8166 cells (syncytia formation, p24 ELISA) with HIV-1 NDK; design: key to syncitia formed, Day 4 / syncitia formed, Day 5 / syncitia formed, Day 6 / syncitia formed, Day 7: ++, +, (+), (+)− and − represent decreasing numbers of syncitia formed; ++, +, (+), (+)− and − represent decreasing numbers of syncitia formed; ++, +, (+), (+)− and − represent decreasing numbers of syncitia formed; ++, +, (+), (+)− and − represent decreasing numbers of syncitia formed; ++, +, (+), (+)− and − represent decreasing numbers of syncitia formed; conditions: for P 24: P 24 after Day 7
Protocol: HIV-1 NL 4-3 isolate (Adachi et al., 1986; Barré-Sinoussi et al., 1983) and highly cytopathic Zairian HIV-1 NDK isolate (Ellrodt et al., 1984) was propagated in permissive CEM cells (Nara et al., 1987). Uninfected CEM and C8166 (Salahuddin et al., 1983) were maintained in RPMI 1640 (R10) with ultraglutamine (cambrex, Vervier, Belgium), penicillin (100 U/ml), streptomycin (100 μg/ml), and 10% heat-inactivated fetal calf serum (Cambrex).
Samples of 3×10^5/100 μL C8166 cells were preincubated in 96-well microtiter plates in culture medium containing various concentrations of peptide. After a 1 h treatment at 37° C., 100 μl of diluted viral solution of HIV-1 was added. The cells were exposed to the virus for 1 h at 37° C. at a multiplicity of infection of 1000 TCID50 per ml. The cells were washed three times and cultured at 3×10^5/ml of R10 with the treatment in 24-well plates incubated at 37° C. C8166 culture medium was replaced at Day-4 post-infection. The treatment was permanent before virus adsorption, during virus adsorption and after infection. Assays on C8166 cells have been performed at least twice and in duplicate. Toxicity was evaluated by daily cell count and trypan-blue exclusion assay. Infection of C8166 T-cells with HIV-1 was assessed by virus-induced cytopathic effects (syncytia formation) and by quantification of cell free p24 viral protein in the culture supernatants. Measurements of HIV-1 p24^gag concentration in the culture supernatants were achieved by ELISA (ALLIANCE® HIV-1 p24 kit, Perkin Elmer, life sciences, USA).

HIV-1 NL 4-3 [2] = assay: HIV-1 infection of C8166 cells (syncytia formation, p24 ELISA) with HIV-1 NL 4-3; design: key: ++, +, (+), (+)− and − represent decreasing numbers of syncitia formed; ++, +, (+), (+)− and − represent decreasing numbers of syncitia formed; ++, +, (+), (+)− and − represent decreasing numbers of syncitia formed; ++, +, (+), (+)− and − represent decreasing numbers of syncitia formed; ++, +, (+), (+)− and − represent decreasing numbers of syncitia formed; conditions: Table 6
Summary of the method: as §1

[3] = C8166 cells, HIV-1 subtype B NL 4-3, Table 9, two lines = tested twice, 8 days apart

SMILES: NCC(=O)N1CCC[C@H]1C(=O)NCC(=O)O [GPG, reference compound] (H-Gly-Pro-Gly-OH)
- Day 7 syncitia formed (HIV-1 NL 4-3 [1]; 0.005 μM, Table 6): ++/T
- syncitia formed, Day 4 (HIV-1 NL 4-3 [1]; 0.01 μM, C8166 cells): (+)
- syncitia formed, Day 5 (HIV-1 NL 4-3 [1]; 0.01 μM, C8166 cells): (+)
- syncitia formed, Day 6 (HIV-1 NL 4-3 [1]; 0.01 μM, C8166 cells): +
- syncitia formed, Day 7 (HIV-1 NL 4-3 [1]; 0.01 μM, Day 7, C8166 cells): ++
- P 24 (HIV-1 NL 4-3 [1]; 0.01 μM, P 24 after Day 7, C8166 cells): 9810 pg/mL and 15810 pg/mL
- syncitia formed, Day 4 (HIV-1 NL 4-3 [1]; 0.1 μM, C8166 cells): −
- syncitia formed, Day 5 (HIV-1 NL 4-3 [1]; 0.1 μM, C8166 cells): −
- syncitia formed, Day 6 (HIV-1 NL 4-3 [1]; 0.1 μM, C8166 cells): (+)
- syncitia formed, Day 7 (HIV-1 NL 4-3 [1]; 0.1 μM, Day 7, C8166 cells): +
- P 24 (HIV-1 NL 4-3 [1]; 0.1 μM, P 24 after Day 7, C8166 cells): 807 pg/mL and 1506 pg/mL
- syncitia formed, Day 4 (HIV-1 NL 4-3 [1]; 0.5 μM, C8166 cells): −
- syncitia formed, Day 5 (HIV-1 NL 4-3 [1]; 0.5 μM, C8166 cells): −
- syncitia formed, Day 6 (HIV-1 NL 4-3 [1]; 0.5 μM, C8166 cells): − and (+)
- syncitia formed, Day 7 (HIV-1 NL 4-3 [1]; 0.5 μM, Day 7, C8166 cells): (+) and +
- syncitia formed, Day 4 (HIV-1 NL 4-3 [1]; 1 μM, C8166 cells): −
- syncitia formed, Day 5 (HIV-1 NL 4-3 [1]; 1 μM, C8166 cells): −
- syncitia formed, Day 6 (HIV-1 NL 4-3 [1]; 1 μM, C8166 cells): −
- syncitia formed, Day 7 (HIV-1 NL 4-3 [1]; 1 μM, Day 7, C8166 cells): (+)
- P 24 (HIV-1 NL 4-3 [1]; 1 μM, P 24 after Day 7, C8166 cells): 62 pg/mL and 42 pg/mL
- syncitia formed, Day 4 (HIV-1 NL 4-3 [1]; 5 μM, C8166 cells): −
- syncitia formed, Day 5 (HIV-1 NL 4-3 [1]; 5 μM, C8166 cells): −
- syncitia formed, Day 6 (HIV-1 NL 4-3 [1]; 5 μM, C8166 cells): −
- syncitia formed, Day 7 (HIV-1 NL 4-3 [1]; 5 μM, Day 7, C8166 cells): −
- IC50 (HIV-1 NL 4-3 [1]; [3]): 0.01 µM
- IC100 (HIV-1 NL 4-3 [1]; [3]): 5 µM
- P 24 (HIV-1 NL 4-3 [1]; Day 7, 0.005 μM, Table 6): 23810 pg/mL
- P 24 (HIV-1 NL 4-3 [1]; Day 7, 0.01 μM, Table 6): 13850 pg/mL and 11756 pg/mL
- P 24 (HIV-1 NL 4-3 [1]; Day 7, 0.05 μM, Table 6): 7330 pg/mL and 9810 pg/mL
- P 24 (HIV-1 NL 4-3 [1]; Day 7, 1 μM, Table 6): 5.4 pg/mL and 3.8 pg/mL
- syncitia formed, Day 4 (HIV-1 NDK; 0.005 μM): +
- syncitia formed, Day 5 (HIV-1 NDK; 0.005 μM): +
- syncitia formed, Day 6 (HIV-1 NDK; 0.005 μM): ++
- syncitia formed, Day 7 (HIV-1 NDK; 0.005 μM): ++
- P 24 (HIV-1 NDK; 0.005 μM): 23810 pg/mL
- syncitia formed, Day 4 (HIV-1 NDK; 0.01 μM): +
- syncitia formed, Day 5 (HIV-1 NDK; 0.01 μM): +
- syncitia formed, Day 6 (HIV-1 NDK; 0.01 μM): ++
- syncitia formed, Day 7 (HIV-1 NDK; 0.01 μM): ++
- P 24 (HIV-1 NDK; 0.01 μM): 23810 pg/mL
- syncitia formed, Day 4 (HIV-1 NDK; 0.05 μM): (+)
- syncitia formed, Day 5 (HIV-1 NDK; 0.05 μM): +
- syncitia formed, Day 6 (HIV-1 NDK; 0.05 μM): ++
- syncitia formed, Day 7 (HIV-1 NDK; 0.05 μM): ++
- P 24 (HIV-1 NDK; 0.05 μM): 23810 pg/mL
- syncitia formed, Day 4 (HIV-1 NDK; 0.1 μM): −
- syncitia formed, Day 5 (HIV-1 NDK; 0.1 μM): +
- syncitia formed, Day 6 (HIV-1 NDK; 0.1 μM): ++
- syncitia formed, Day 7 (HIV-1 NDK; 0.1 μM): ++
- P 24 (HIV-1 NDK; 0.1 μM): 23810 pg/mL
- syncitia formed, Day 4 (HIV-1 NDK; 0.5 μM): −
- syncitia formed, Day 5 (HIV-1 NDK; 0.5 μM): +
- syncitia formed, Day 6 (HIV-1 NDK; 0.5 μM): ++
- syncitia formed, Day 7 (HIV-1 NDK; 0.5 μM): ++
- P 24 (HIV-1 NDK; 0.5 μM): 21110 pg/mL and 23810 pg/mL
- syncitia formed, Day 4 (HIV-1 NDK; 1 μM): −
- syncitia formed, Day 5 (HIV-1 NDK; 1 μM): (+)
- syncitia formed, Day 6 (HIV-1 NDK; 1 μM): +
- syncitia formed, Day 7 (HIV-1 NDK; 1 μM): +
- P 24 (HIV-1 NDK; 1 μM): 3810 pg/mL and 2507 pg/mL
- syncitia formed, Day 4 (HIV-1 NDK; 5 μM): −
- syncitia formed, Day 5 (HIV-1 NDK; 5 μM): −
- syncitia formed, Day 6 (HIV-1 NDK; 5 μM): −
- syncitia formed, Day 7 (HIV-1 NDK; 5 μM): +
- P 24 (HIV-1 NDK; 5 μM): 2733 pg/mL and 2400 pg/mL
- IC50 (HIV-1 NDK; HIV 1 NDK, Table 10): 0.5 µM
- IC100 (HIV-1 NDK; HIV 1 NDK, Table 10): >5 µM
- Day 4 syncitia formed (HIV-1 NL 4-3 [2]; 0.005 μM): −
- Day 5 syncitia formed (HIV-1 NL 4-3 [2]; 0.005 μM): +
- Day 6 syncitia formed (HIV-1 NL 4-3 [2]; 0.005 μM): ++
- Day 4 syncitia formed (HIV-1 NL 4-3 [2]; 0.01 μM): −
- Day 5 syncitia formed (HIV-1 NL 4-3 [2]; 0.01 μM): (+)
- Day 6 syncitia formed (HIV-1 NL 4-3 [2]; 0.01 μM): +
- Day 7 syncitia formed (HIV-1 NL 4-3 [2]; 0.01 μM): ++
- Day 4 syncitia formed (HIV-1 NL 4-3 [2]; 0.05 μM): −
- Day 5 syncitia formed (HIV-1 NL 4-3 [2]; 0.05 μM): −
- Day 6 syncitia formed (HIV-1 NL 4-3 [2]; 0.05 μM): (+)
- Day 7 syncitia formed (HIV-1 NL 4-3 [2]; 0.05 μM): +
- Day 4 syncitia formed (HIV-1 NL 4-3 [2]; 0.1 μM): −
- Day 5 syncitia formed (HIV-1 NL 4-3 [2]; 0.1 μM): −
- Day 6 syncitia formed (HIV-1 NL 4-3 [2]; 0.1 μM): −
- Day 7 syncitia formed (HIV-1 NL 4-3 [2]; 0.1 μM): +
- Day 4 syncitia formed (HIV-1 NL 4-3 [2]; 0.5 μM): −
- Day 5 syncitia formed (HIV-1 NL 4-3 [2]; 0.5 μM): −
- Day 6 syncitia formed (HIV-1 NL 4-3 [2]; 0.5 μM): −
- Day 7 syncitia formed (HIV-1 NL 4-3 [2]; 0.5 μM): −
- Day 4 syncitia formed (HIV-1 NL 4-3 [2]; 1 μM): −
- Day 5 syncitia formed (HIV-1 NL 4-3 [2]; 1 μM): −
- Day 6 syncitia formed (HIV-1 NL 4-3 [2]; 1 μM): −
- Day 7 syncitia formed (HIV-1 NL 4-3 [2]; 1 μM): −
- Day 4 syncitia formed (HIV-1 NL 4-3 [2]; 5 μM): −
- Day 5 syncitia formed (HIV-1 NL 4-3 [2]; 5 μM): −
- Day 6 syncitia formed (HIV-1 NL 4-3 [2]; 5 μM): −
- Day 7 syncitia formed (HIV-1 NL 4-3 [2]; 5 μM): −
